Experimental data reported in PMC6627553, “Cardiac Rhythm and Molecular Docking Studies of Ion Channel Ligands with Cardiotoxicity in Zebrafish” (Cells, 2019).
“Also recorded” adds a separate entry of the source. Where a name gives a salt, the structure may show the parent alone. Read-outs that look alike come from different tables or passages of the source.

Key:
[1] = system: rats; details: cited from earlier work
[2] = system: zebrafish embryos aged 72 hpf; assay: Chronology method: heart beat recorded at 5 min intervals over 30 min; details: 10 μM; for Atrium and ventricle rhythmicity pattern after 30 min incubation: compared to control; for Cardiac phenotype by time chronology method: 10 sec recordings at 5 min intervals over 30 min, methylcellulose mounted
Procedure: (§1) Stock concentrations for each compound in the library are 10 mM with 100 µL volume. The compounds are diluted with distilled water to make working solutions at 10 µM. For drug treatment, 20 µM of the compound stock was dropped onto the fish mounted with the same volume (around 50 µL) of 3% methylcellulose for a final working concentration of 10 µM. The heart beats from three zebrafish larvae were used for the first round of screening. […] The heart beats from five zebrafish larvae for each compound were recorded for 10 sec at 5 min intervals over a period of 30 min.
(§2) After drug administration, we video recorded the heart beat for 10 sec at 5 min intervals, over a period of 30 min.

[3] = system: zebrafish embryos aged 72 hpf; assay: End-point screen of ion channel ligand library for cardiac rhythm (ImageJ-based); details: 10 μM, 30 min incubation
Procedure: Seventy-two hpf larvae were used for this study.
The compounds are diluted with distilled water to make working solutions at 10 µM. For drug treatment, 20 µM of the compound stock was dropped onto the fish mounted with the same volume (around 50 µL) of 3% methylcellulose for a final working concentration of 10 µM. The heart beats from three zebrafish larvae were used for the first round of screening. […] The heart beats from five zebrafish larvae for each compound were recorded for 10 sec at 5 min intervals over a period of 30 min.
For the cardiac rhythm assay, we mounted zebrafish embryos aged at 72 hpf with 3% methylcellulose to reduce their movement, and later applied chemicals from an ion channel ligand library (containing 70 compounds) at 10 μM to measure the changes in cardiac rhythm according to our previous ImageJ-based method [25]. In order to prevent the potential side effects of anesthesia on heart rate or rhythmicity, we used methylcellulose to mount zebrafish larvae for videotaping.
Initially, we used an image-based end-point method to screen the potential effects of an ion channel ligand library on heart beat rhythm alterations. […] In order to screen a potential compound with high cardiotoxicity at a low dose, we performed chemical screening at 10 μM as a starting point. […] A heartbeat that exceeds these ranges is considered abnormal.

[4] = system: zebrafish embryos aged 72 hpf; assay: Dose response experiment for lowest effective dose (LOED), time chronology method; details: 1 µM and 5 µM
Procedure: Three different doses, 1, 5 and 10 μM, of the tested compounds were given to zebrafish embryos aged 72 hpf, and the heart beat rate and rhythmicity were recorded for comparison by the time chronology method.
(§3) Five zebrafish larvae aged at 72 h post-fertilization (hpf) were used in this assay.

[5] = system: zebrafish embryos aged 72 hpf; details: in vivo
Procedure: as §1, §2

[6] = system: hERG channel; details: cited from earlier work
[7] = system: cardiac K+ channels; details: cited from earlier work
[8] = system: zebrafish larvae aged 72 hpf; assay: Washout experiment for heart rate and rhythmicity; details: washout for 30 min and 1 h
Procedure: as §3

| SMILES | Atrium and ventricle rhythmicity pattern after 30 min incubation [2] | Heart rhythm phenotype in first step screening (end-point screen) [3] | Cardiac phenotype by time chronology method [2] | other results |
| --- | --- | --- | --- | --- |
| CNc1ccc2oc(C[C@H]3O[C@@]4(CC[C@H]3C)O[C@H]([C@H](C)C(=O)c3ccc[nH]3)[C@H](C)C[C@H]4C)nc2c1C(=O)O [compound 1333, Antibiotic A-23187] | 1:1 rhythm, but the peak was more compact | ventricular fibrillation or total heart stop; also recorded: irregular heart rhythmicity |  | Increase of heart beat [1]: up to 50%; Heart rhythm phenotype in first step screening (end-point screen) ([3]; listed as Antibiotic A-23187): ventricular fibrillation |
| Fc1ccc(C(c2ccc(F)cc2)N2CCN(C/C=C/c3ccccc3)CC2)cc1 [compound 1345, Flunarizine hydrochloride] | arryhtmia was not shown in the pattern; however, the peak was less compact compared to the control | slight slowing of the heartbeat (bradycardia); also recorded: irregular heart rhythmicity | slowing of heart rate as well as arrhythmia after incubation for 25 and 30 min; also recorded: slowing of the heart as well as arrhythmia after incubation for 25 and 30 min |  |
| COC(=O)c1c(C)[nH]c(C)c1C(=O)c1ccccc1Cc1ccccc1 [compound 1346, FPL-64176] | arrhythmic beating | ventricular fibrillation or total heart stop; also recorded: irregular heart rhythmicity | arrhythmia | Heart rhythm phenotype in first step screening (end-point screen) ([3]; listed as FPL-64176): heart completely stopped; Effect on cardiac rhythmicity at low concentration [4]: did not change; Effect on heart beat rate at low concentration [4]: did not change the heart beat rate |
| O=c1[nH]c2ccccc2n1C1CCN(CCCC(c2ccc(F)cc2)c2ccc(F)cc2)CC1 [compound 1360, Pimozide] | arrhythmic, with one peak in the ventricle being followed by two in the atrium | ventricular fibrillation or total heart stop; also recorded: irregular heart rhythmicity | atrioventricular block occurred, subsequently becoming more severe over time | Cardiac phenotype by time chronology method [5]: atrioventricular block from 10 min onwards; Concentration giving significant inhibition of hERG channel currents ([6]; as low as): 3 nM; IC50 ([6]; read-out: IC50 of hERG channel currents): 18 nM; Reported cardiac adverse effect [7]: acquired long QT syndrome and ventricle arrhythmia; Reversibility of cardiotoxicity effect [7]: poorly reversible; Restoration of heart rate after washout [8]: could not be fully restored, even after 1 h of washout treatment; Reversal of arrhythmic effect after washout [8]: unable to fully reverse the arrhythmic effect |
| O=C1NCN(c2ccccc2)C12CCN(CCCC(c1ccc(F)cc1)c1ccc(F)cc1)CC2 [compound 1377, Fluspirilene] | arrhythmic, with one peak of the ventricle being followed by two of the atrium | ventricular fibrillation or total heart stop; also recorded: irregular heart rhythmicity; also recorded: total heart stop | arrhythmia from 5 min onwards | Cardiac phenotype by time chronology method ([2]; listed as fluspirilene): arrhythmia occurred from 5 min onwards and became more severe over time; Heart rhythm phenotype in first step screening (end-point screen) ([3]; listed as fluspirilene): heart completely stopped |
